From patent US8575135B2 (Gilead Sciences, Inc., priority 2011, dated 2013)
Like-named read-outs stand apart in the source and are kept apart here.

Key:
Test in all cases: microbe, parasite or virus in culture
Details in all cases: Hepatitis C virus
[1] = test system: stable HCV 1a RLuc replicon cells (genotype 1a H77 replicon); assay type: cell-based
Protocol: (§1) Evaluation of Cell-Based Anti-HCV Activity:
(§2) Antiviral potency (EC50) was determined using a Renilla luciferase (RLuc)-based HCV replicon reporter assay. […] To perform the assay for genotype 2a (with M31 present in NS5A) or 2b, NS5A chimeric genotype 2a JFH-1 replicons that encodes a RLuc-Neo reporter and either genotype 2a J6 strain NS5A gene or genotype 2b MD2b-1 strain NS5A gene (both with M31 present) respectively, were either transiently transfected (t) into Huh-Lunet cells or were established as stably replicating replicon cells (s) is provided. Either cells were dispensed into 384-well plates for EC50 assays. To perform the assay for genotype 3 and 4, NS5A chimeric genotype 1b Con1 replicons that encodes a Pi-RLuc reporter and either genotype 3a S52 strain NS5A gene or genotype 4a ED43 strain NS5A gene respectively, were transiently transfected (t) into Huh-Lunet cells, which were subsequently dispensed into 384-well plates. Compounds were dissolved in DMSO at a concentration of 10 mM and diluted in DMSO either manually or using an automated pipeting instrument. Serially 3-fold diluted compounds were either manually mixed with cell culture media and added to the seeded cells or directly added to the cells using an automated instrument. […] 72 hours later, cells were lysed and Renilla luciferase activity quantified as recommended by the manufacturer (Promega-Madison, Wis.). Non-linear regression was performed to calculate EC50 values.

[2] = test system: stable HCV 2a JFH-1 Rluc replicon cells (L31 present in NS5A); assay type: cell-based
[3] = test system: NS5A chimeric genotype 1b Con1 replicon with genotype 3a S52 strain NS5A gene; assay type: cell-based, HCV
Protocol: as §1, §2

[4] = test system: NS5A chimeric genotype 2a JFH-1 replicon with genotype 2a J6 strain NS5A gene (M31 present); assay type: cell-based, HCV
Protocol: as §1, §2

[5] = test system: NS5A chimeric genotype 2a JFH-1 replicon with genotype 2b MD2b-1 strain NS5A gene (M31 present); assay type: cell-based, HCV
Protocol: as §1, §2

[6] = test system: NS5A chimeric genotype 1b Con1 replicon with genotype 4a ED43 strain NS5A gene; assay type: cell-based, HCV

| Structure (SMILES) | EC50 ([1]; read-out: 1a) | EC50 ([1]; read-out: 1a (nM)) | EC50 ([2]; read-out: 2a JFH) | EC50 ([2]; read-out: 2a JFH (nM)) | EC50 ([3]; read-out: 3a) | EC50 ([3]; read-out: 3a (nM)) | EC50 ([4]; read-out: 2a J6) | EC50 ([4]; read-out: 2a J6 (s) (nM)) | EC50 ([5]; read-out: 2b) | EC50 ([5]; read-out: 2b (s) (nM)) | EC50 ([6]; read-out: 4a) | EC50 ([6]; read-out: 4a (s) (nM)) | EC50 ([6]; read-out: 4a (t) (nM)) | EC50 ([4]; read-out: 2a Jb (t) (nM)) | EC50 ([5]; read-out: 2b (t) (nM)) |
| --- | --- | --- | --- | --- | --- | --- | --- | --- | --- | --- | --- | --- | --- | --- | --- |
| COC(=O)N[C@H](C(=O)N1CCC[C@H]1c1ncc(-c2ccc3c(c2)COc2cc4c(ccc5nc([C@@H]6C[C@H]7C[C@H]7N6C(=O)[C@@H](NC(=O)OC)C(C)C)[nH]c54)cc2-3)[nH]1)C(C)C [Compound 518] | < 1 nM | 0.005 nM | < 1 nM | 0.006 nM | < 1 nM | 0.005 nM | 1 to 4.99 nM | 2.49 nM | < 1 nM | 0.643 nM | < 1 nM | 0.011 nM | 0.004 nM | – | – |
| CCC(=O)N[C@@H](C(=O)N1CCC[C@H]1c1ncc(-c2ccc3c(c2)COc2cc4c(ccc5nc([C@@H]6CCCN6C(=O)[C@@H](NC(=O)OC)C(C)C)[nH]c54)cc2-3)[nH]1)c1ccccc1 [Compound 499] | < 1 nM | 0.057 nM | < 1 nM | 0.008 nM | < 1 nM | 0.01 nM | < 1 nM | 0.206 nM | < 1 nM | 0.04 nM | < 1 nM | 0.005 nM | 0.021 nM | – | – |
| COC(=O)N[C@H](C(=O)N1CCCC1c1ncc(-c2ccc3c(c2)COc2cc4c(ccc5nc([C@@H]6C[C@@H]7CCC[C@@H]7N6C(=O)[C@@H](NC(=O)OC)C(C)C)[nH]c54)cc2-3)[nH]1)C(C)C (stereo partly drawn) [Example PO, methyl {(2S)-1-[2-(5-{2-[(2S,3aS,6aS)-1-{(2S)-2-[(methoxycarbonyl)amino]-3-methylbutanoyl}octahydrocyclopenta[b]pyrrol-2-yl]-1,11-dihydroisochromeno[4′,3′:6,7]naphtho[1,2-d]imidazol-9-yl}-1H-imidazol-2-yl)pyrrolidin-1-yl]-3-methyl-1-oxobutan-2-yl}carbamate] | < 1 nM | 0.013 nM | < 1 nM | 0.011 nM | < 1 nM | 0.012 nM | 1 to 4.99 nM | 3.13 nM | < 1 nM | 0.47 nM | < 1 nM | 0.013 nM | 0.013 nM | – | – |
| COC[C@@H]1C[C@@H](c2nc3c([nH]2)-c2cc4c(cc2CC3)-c2ccc(-c3cnc([C@@H]5CCCN5C(=O)[C@@H](NC(=O)OC)C(C)C)[nH]3)cc2CO4)N(C(=O)[C@@H](NC(=O)OC)C(C)C)C1 [Compound 493] | < 1 nM | 0.036 nM | < 1 nM | 0.008 nM | < 1 nM | 0.05 nM | > 5 nM | 5.04 nM | < 1 nM | 0.65 nM | < 1 nM | 0.018 nM | 0.013 nM | – | – |
| COC[C@H]1C[C@@H](c2nc3ccc4cc5c(cc4c3[nH]2)OCc2cc(-c3ccc4nc([C@@H]6CCCN6C(=O)[C@@H](NC(=O)OC)C(C)C)[nH]c4c3)ccc2-5)N(C(=O)[C@@H](NC(=O)OC)C(C)C)C1 | < 1 nM | 0.003 nM | < 1 nM | 0.021 nM | 1 to 4.99 nM | 1.09 nM | > 5 nM | 44.4 nM | > 5 nM | 44.4 nM | < 1 nM | 0.025 nM | 0.015 nM | – | – |
| COC(=O)N[C@H](C(=O)N1CCC[C@H]1c1ncc(-c2ccc3c(c2)COc2cc4c(cc2-3)CCc2nc([C@@H]3CCCN3C(=O)[C@H](NC(=O)C3CC3)c3ccccc3)[nH]c2-4)[nH]1)C(C)C [Compound 503] | < 1 nM | 0.062 nM | < 1 nM | 0.012 nM | < 1 nM | 0.016 nM | < 1 nM | 0.155 nM | < 1 nM | 0.037 nM | < 1 nM | 0.025 nM | 0.028 nM | – | – |
| CC[C@H](C)[C@H](NC(=O)OC)C(=O)N1C[C@@H](COC)C[C@H]1c1ncc(-c2ccc3c(c2)COc2cc4c(ccc5nc([C@@H]6C[C@H](COC)CN6C(=O)[C@@H](NC(=O)OC)[C@@H](C)CC)[nH]c54)cc2-3)[nH]1 [Example OJ] | < 1 nM | 0.018 nM | < 1 nM | 0.013 nM | < 1 nM | 0.259 nM | < 1 nM | 0.502 nM | < 1 nM | 0.813 nM | < 1 nM | 0.017 nM | 0.026 nM | – | – |
| COC(=O)N[C@H](C(=O)N1[C@@H](C)CC[C@H]1c1ncc(-c2ccc3c(c2)COc2cc4c(ccc5nc([C@@H]6CCCN6C(=O)[C@H](N)c6ccccc6)[nH]c54)cc2-3)[nH]1)C(C)C [Example NR, Methyl [(2S)-1-{(2S,5S)-2-[5-(2-{(2S)-1-[(2R)-2-amino-2-phenylacetyl]pyrrolidin-2-yl}-1,11-dihydroisochromeno[4′,3′:6,7]naphtho[1,2-d]imidazol-9-yl)-1H-imidazol-2-yl]-5-methylpyrrolidin-1-yl}-3-methyl-1-oxobutan-2-yl]carbamate] | < 1 nM | 0.026 nM | < 1 nM | 0.006 nM | – | – | < 1 nM | – | < 1 nM | 0.017 nM | < 1 nM | 0.007 nM | – | 0.118 nM | 0.017 nM |
| COC[C@H]1C[C@@H](c2nc3ccc4cc5c(cc4c3[nH]2)OCc2cc(-c3cnc([C@@H]4CCCN4C(=O)[C@H](NC(=O)C4CC4)c4ccccc4)[nH]3)ccc2-5)N(C(=O)[C@@H](NC(=O)OC)C(C)C)C1 [Compound 510] | < 1 nM | 0.021 nM | < 1 nM | 0.009 nM | < 1 nM | 0.008 nM | < 1 nM | 0.018 nM | < 1 nM | 0.02 nM | < 1 nM | 0.072 nM | 0.016 nM | 0.007 nM | 0.017 nM |
| COC(=O)N[C@H](C(=O)N1C[C@@H](COC(F)F)C[C@H]1c1nc2ccc3cc4c(cc3c2[nH]1)OCc1cc(-c2cnc([C@@H]3CC[C@H](C)N3C(=O)[C@@H](NC(=O)OC)C(C)C)[nH]2)ccc1-4)C(C)C [Example PS, methyl {(2S)-1-[(2S,5S)-2-(5-{2-[(2S,4S)-4-[(difluoromethoxy)methyl]-1-{(2S)-2-[(methoxycarbonyl)amino]-3-methylbutanoyl}pyrrolidin-2-yl]-1,11-dihydroisochromeno[4′,3′:6,7]naphtho[1,2-d]imidazol-9-yl}-1H-imidazol-2-yl)-5-methylpyrrolidin-1-yl]-3-methyl-1-oxobutan-2-yl}carbamate] | < 1 nM | 0.005 nM | < 1 nM | 0.004 nM | – | 44.4 nM | < 1 nM | – | < 1 nM | – | – | – | – | 0.077 nM | 0.113 nM |
